Data on four compounds can be found in paper PMC11562385 (RSC Chemical Biology, 2024).

Read-outs that look alike come from different tables or passages of the source. Peptide text beside a SMILES is read from it. Some results are limits rather than exact numbers.

Data set [1] concerns the target T1, PD1:PDL1 interaction (Homo sapiens, UniProt Q15116).
T1 construct: purchased BPS Bioscience 72005
Kind of data set: PD1/PDL1 immunoblocking ELISA (BPS Bioscience kit cat # 72005). The class given is binding. Particulars: for LE (ligand efficiency): LE = -RTln(EC50)/HA, HA = non-hydrogen atoms omitting the strap (RWV•••VWE).

A short description of data set [2]: Variable-temperature CD melting curves (CD-melts at 228±2 nm and 202±2 nm), individual and global two-state fits. The class given is physicochemical. The arrangement: DSo: unit not given here. Conditions: for ΔGF0: CD-melt at 228±2 nm, individual two-state Gibbs-Helmholtz fit (Origin 9.0), phosphate buffer 15 mM pH 6.5 ± MeOH; for ΔGF0 / DHm (fitted value, results from OriginPro) / Tm (fitted value, results from OriginPro): 0-95 °C; for -TΔSF0 / ΔCpF0 / ΔHF0 / ΔHm: as E16; for VT-CD %-fold: folded fraction (χF) at 25 °C from CD-melts, (R) regular / (B) bulged fold; for VT-CD %-fold / VT-CD Tm (°C): phosphate buffer 15 mM pH 6.5, up to 20% MeOH; for VT-CD Tm (°C): melting temperature from CD-melts; for DHm (fitted value, results from OriginPro) / Tm (fitted value, results from OriginPro): two-state fit of the CD melt θ - θcoil(95) vs T, peptide c 3.2e-5 to 5e-5 M. The gist of the method:
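Far-UV CD melts (0 to 95 °C) at 15-120 µM peptide in 15 mM phosphate buffer, concentration set by Trp/Tyr absorbance at 280 nm; CD-exciton intensity taken as %-folding probe. Melting curves fitted individually and globally to a two-state model.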

The mark [3] stands for this setting: Table S5, individual fit, 228±2 nm.
Setting [4] is: Table S5, individual fit, 291 K.
Where [5] appears, read: Table S5, individual fit, 310 K.

T1 sequence (Q15116 25-167 limits assumed): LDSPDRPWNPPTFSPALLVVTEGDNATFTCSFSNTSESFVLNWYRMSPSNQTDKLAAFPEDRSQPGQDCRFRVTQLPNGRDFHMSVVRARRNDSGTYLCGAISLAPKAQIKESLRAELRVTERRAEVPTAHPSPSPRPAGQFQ

On to `CSCC[C@H](NC(=O)[C@H](CC(=O)O)NC(=O)CNC(=O)[C@H](CCCNC(=N)N)NC(=O)[C@H](Cc1ccc(O)cc1)NC(=O)[C@H](CC(=O)O)NC(=O)[C@H](CCCNC(=N)N)NC(=O)[C@H](Cc1c[nH]c2ccccc12)NC(=O)[C@@H](NC(=O)[C@H](Cc1c[nH]c2ccccc12)NC(=O)[C@@H](N)CCCNC(=N)N)C(C)C)C(=O)NCC(=O)N[C@@H](Cc1ccccc1)C(=O)N[C@@H](CC(=O)O)C(=O)N[C@@H](Cc1c[nH]c2ccccc12)C(=O)N[C@H](C(=O)N[C@@H](Cc1c[nH]c2ccccc12)C(=O)N[C@@H](CCC(=O)O)C(=O)O)C(C)C` [1b] (H-RWVWRDYRGDMGFDWVWE-OH), for which the EC50 in data set [1] (ELISA, mean of three independent experiments, read-out: EC50 Value) stood at 7.08 µM. In addition, the “LE (ligand efficiency)” value in data set [1] was 0.06. Moreover, in data set [1] ([PD1•PDL1] blocking EC50, Fig. 3B, cut-off bars of congeneric pairs (Phe/Trp vs Gly), n = 3), the 50% effective concentration (EC50) was above 5 µM. In addition, in data set [2], the ΔGF0 was -0.64 ± 0.01 kcal/mol, the “-TΔSF0” value amounted to 8.29 ± 0.02 kcal/mol, the ΔCpF0 is -41 ± 1 cal.deg-1.mol-1 and the ΔHF0 was -8.94 ± 0.02 kcal/mol. In addition, in data set [2], the ΔHm is -9.84 ± 0.01 kcal/mol, the VT-CD %-fold is reported as 81% (R) and the “VT-CD Tm (°C)” value amounted to 47 °C. Further, the “DCp (fitted value)” value in data set [2] (CD-melt of 1b, c 3.4e-5 M, l 0.1 cm, two-state fit in OriginPro) is -40.77 cal/(deg.mol). For the same compound, the “DHm (fitted value)” value in data set [2] (CD-melt of 1b, c 3.4e-5 M, l 0.1 cm, two-state fit in OriginPro, enthalpy at Tm) was -9.84462 kcal/mol. Moreover, the “cF(18 oC), fraction folded” value in data set [2] (CD-melt of 1b, two-state fit in OriginPro, 18 °C) was determined as 81%. This compound also registered a TDSo in data set [2] (CD-melt of 1b, two-state fit in OriginPro, standard-state entropic term) of -8.2949 kcal/mol. In data set [2] (CD-melt of 1b, two-state fit in OriginPro, standard-state folding enthalpy), this compound gave a DHo of -8.9431 kcal/mol. In data set [2] (CD-melt of 1b, two-state fit in OriginPro, standard-state folding entropy), this compound registered a DSo of -27.84. This compound yielded a DGo in data set [2] (CD-melt of 1b, two-state fit in OriginPro, standard-state folding free energy) of -0.6482 kcal/mol. Also, in data set [2] (CD-melt of 1b, two-state fit in OriginPro, the fitted Tm restated without a unit (apparently °C)), the Tm came out at 47 °C. For the same compound, the “%fold 291K” value in data set [2] (CD-melt of 1b, two-state fit, 291 K) amounted to 81%. Besides, the “%fold 310K” value in data set [2] (CD-melt of 1b, two-state fit, 310 K) came out at 62%. Moreover, the “Tm (fitted value)” value in data set [2] (CD-melt of 1b, θ - θcoil(95) vs T 0-95 °C, c 3.4e-5 M, l 0.1 cm, two-state fit in OriginPro) is recorded as 320.113 K. The “TM (°C)” value in data set [2] (Fig. 2, CD-melts of regular vs bulged scaffolds) is 47 °C. The Tm in data set [2] (setting [3]) is 46.9 oC. Further, in data set [2] (setting [4]), the “Hairpin %-fold 291K” value is reported as 81 ± 1%. In addition, the “Hairpin %-fold 310K” value in data set [2] (setting [5]) was determined as 62 ± 1%.

On to `CSCC[C@H](NC(=O)CNC(=O)[C@H](CCC(=O)O)NC(=O)[C@H](CCCNC(=N)N)NC(=O)[C@H](C)NC(=O)[C@@H](NC(=O)[C@H](Cc1c[nH]c2ccccc12)NC(=O)[C@@H](N)CCCNC(=N)N)C(C)C)C(=O)N[C@@H](CC(N)=O)C(=O)N[C@H](C(=O)N[C@@H](CC(=O)O)C(=O)NCC(=O)N[C@@H](Cc1ccc(O)cc1)C(=O)N[C@@H](Cc1ccccc1)C(=O)N[C@@H](CC(=O)O)C(=O)N[C@@H](Cc1ccc(O)cc1)C(=O)N[C@@H](Cc1c[nH]c2ccccc12)C(=O)N[C@@H](Cc1c[nH]cn1)C(=O)N[C@@H](Cc1c[nH]c2ccccc12)C(=O)N[C@@H](CCC(=O)O)C(=O)O)[C@@H](C)O` [2o] (H-RWVAREGMNTDGYFDYWHWE-OH), for which, in data set [1], the “LE (ligand efficiency)” value is 0.07. In data set [2], the ΔGF0 was found to be 0.47 ± 0.01 kcal/mol, the “-TΔSF0” value amounted to 6.45 ± 0.02 kcal/mol, the ΔCpF0 was -2 ± 1 cal.deg-1.mol-1 and the ΔHF0 was -5.97 ± 0.01 kcal/mol. For the same compound, in data set [2], the ΔHm was -5.93 ± 0.03 kcal/mol, the VT-CD %-fold is 50% (B) and the “VT-CD Tm (°C)” value came to 3 °C. Also, the Tm in data set [2] (setting [3]) stood at 2.8 oC. Besides, the “Hairpin %-fold 291K” value in data set [2] (setting [4]) came to 36 ± 1%. Also, the “Hairpin %-fold 310K” value in data set [2] (setting [5]) is recorded as 23 ± 1%. For the same compound, the “%fold 291K” value in data set [2] (fraction folded at 291 K from the two-state fit of the CD melt, l 0.1 cm) worked out at 36%. The “Tm 228 nm Glob.” value in data set [2] (global fit (shared maximum molar ellipticity), 228 nm) was 14.6 oC. Also, the “Tm 202 nm Glob.” value in data set [2] (global fit, 202 nm) is recorded as -18.3 oC. In data set [2] (global fit, 202 nm, 291 K), the “χF (291 K) 202 nm Glob.” value came to 19%. Besides, the “χF (291 K) 228 nm Glob.” value in data set [2] (global fit, 228 nm, 291 K) came out at 47%. In addition, in data set [2] (individual fit, 202 nm, 291 K), the “χF (291 K) 202 nm Indiv.” value turned out to be 38%. For the same compound, in data set [2] (individual fit, 228 nm, 291 K), the “χF (291 K) 228 nm Indiv.” value is 36%. The “Tm 228 nm Indiv.” value in data set [2] (individual fit, exciton band 228 nm) is reported as 2.8 oC. Also, the “Tm 202 nm Indiv.” value in data set [2] (individual fit, β-bulge band 202 nm) worked out at 7.9 oC. Further, in data set [2] (l 0.1 cm), the “DHm (fitted value, results from OriginPro)” value was -5.92662 kcal/mol and the “Tm (fitted value, results from OriginPro)” value is recorded as 275.984 K.

Take `CSCC[C@H](NC(=O)[C@H](CC(=O)O)NC(=O)CNC(=O)[C@H](CCCNC(=N)N)NC(=O)[C@H](Cc1ccc(O)cc1)NC(=O)[C@H](CC(=O)O)NC(=O)[C@H](CCCNC(=N)N)NC(=O)[C@H](CCCNC(=N)N)NC(=O)[C@H](C)NC(=O)[C@@H](NC(=O)[C@H](Cc1c[nH]c2ccccc12)NC(=O)[C@@H](N)CCCNC(=N)N)C(C)C)C(=O)NCC(=O)N[C@@H](Cc1ccccc1)C(=O)N[C@@H](CC(N)=O)C(=O)N[C@@H](Cc1ccc(O)cc1)C(=O)N[C@@H](Cc1c[nH]c2ccccc12)C(=O)N[C@H](C(=O)N[C@@H](Cc1c[nH]c2ccccc12)C(=O)N[C@@H](CCC(=O)O)C(=O)O)C(C)C` [2j] (H-RWVARRDYRGDMGFNYWVWE-OH): in data set [1], the “LE (ligand efficiency)” value amounted to 0.07. Moreover, the EC50 in data set [1] (PD1:PDL1 inhibition EC50, ELISA, PDL1-coated plate, biotin-labeled human PD-1, 2 h rt, chemiluminescence, Hill fit, mean ± SD, n = 3, SD) came to 0.1 ± 0.01 µM. Further, in data set [2], the ΔGF0 was -1.63 ± 0.01 kcal/mol, the “-TΔSF0” value came out at 14.3 ± 0.09 kcal/mol, the ΔCpF0 is on record as -29 ± 3 cal.deg-1.mol-1 and the ΔHF0 is -15.9 ± 0.02 kcal/mol. For the same compound, in data set [2], the ΔHm is -16.8 ± 0.03 kcal/mol, the VT-CD %-fold was 97% (B) and the “VT-CD Tm (°C)” value was found to be 58 °C. Also, in data set [2] (setting [3]), the Tm is listed as 57.8 oC. In data set [2] (setting [4]), the “Hairpin %-fold 291K” value was 97 ± 1%. In addition, in data set [2] (setting [5]), the “Hairpin %-fold 310K” value is listed as 84 ± 1%. Moreover, in data set [2] (l 0.1 cm), the “DHm (fitted value, results from OriginPro)” value was -16.8394 kcal/mol and the “Tm (fitted value, results from OriginPro)” value was determined as 330.952 K.

For `CC[C@H](C)[C@H](NC(=O)[C@H](Cc1ccc(O)cc1)NC(=O)[C@H](Cc1c[nH]c2ccccc12)NC(=O)[C@H](Cc1ccc(O)cc1)NC(=O)[C@H](CC(N)=O)NC(=O)CNC(=O)[C@H](Cc1ccc(O)cc1)NC(=O)[C@H](C)NC(=O)[C@H](CCCNC(=N)N)NC(=O)[C@H](C)NC(=O)[C@@H](NC(=O)[C@H](Cc1c[nH]c2ccccc12)NC(=O)[C@@H](N)CCCNC(=N)N)C(C)C)C(=O)N[C@@H](CC(=O)O)C(=O)N[C@H](C(=O)N[C@@H](Cc1c[nH]c2ccccc12)C(=O)N[C@@H](Cc1c[nH]cn1)C(=O)N[C@@H](Cc1c[nH]c2ccccc12)C(=O)N[C@@H](CCC(=O)O)C(=O)O)C(C)C` [2q] (H-RWVARAYGNYWYIDVWHWE-OH), the “LE (ligand efficiency)” value in data set [1] stood at 0.07. The VT-CD %-fold entry in data set [2] is on record as “β-structure”. For the same compound, in data set [2] (no hairpin exciton, no fit possible), the “fold by CD signature (in words)” value was “β-sheet structure”.
